# Experimental data taken from patent publication US20170008888A1 (KYORIN PHARMACEUTICAL CO., LTD., priority 2014, published 2017).
# Where two headings read alike, the source gives them in different places.
# How the values were obtained:
# Format in all cases: binding
# ERK5 = target: T1, ERK5 (Homo sapiens, UniProt Q13164); assay: Probe-based (AX9989 acyl phosphate ATP probe) kinase profiling in Jurkat lysate: ERK5; conditions: for IC50: Jurkat lysate
# T1 construct: screened for activity against several kinases in Jurkat cells; endogenous in cells; host or cells: Jurkat cell lysate
# How it was run: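 Gel-filtered Jurkat lysate (5 mg/ml, 20 mM MnCl2) preincubated 15 min at room temperature with compound, then labelled with 5 μM AX9989 acyl phosphate ATP probe. Probe-labelled ERK5 active-site peptides quantified by LC/MS after trypsin digestion and streptavidin capture; IC50 calculated from percent inhibition at the screening concentration.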
# AurA = target: T2, AurA (Homo sapiens, UniProt O14965); assay: Probe-based (AX9989) kinase profiling in Jurkat lysate: AurA
# T2 construct: screened for activity against several kinases in Jurkat cells; endogenous in cells; host or cells: Jurkat cell lysate
# T2 sequence (O14965 1-403): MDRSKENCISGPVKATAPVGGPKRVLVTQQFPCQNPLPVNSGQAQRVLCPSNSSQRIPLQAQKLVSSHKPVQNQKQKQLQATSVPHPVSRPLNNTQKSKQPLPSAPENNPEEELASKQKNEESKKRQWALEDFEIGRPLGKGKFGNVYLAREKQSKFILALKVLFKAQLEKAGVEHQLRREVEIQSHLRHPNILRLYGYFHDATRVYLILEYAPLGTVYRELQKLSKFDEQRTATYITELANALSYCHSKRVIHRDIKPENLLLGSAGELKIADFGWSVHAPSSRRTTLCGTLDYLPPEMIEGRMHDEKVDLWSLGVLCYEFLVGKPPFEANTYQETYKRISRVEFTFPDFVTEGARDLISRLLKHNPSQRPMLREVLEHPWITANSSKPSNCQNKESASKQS
# How it was run: (§1)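 Gel-filtered Jurkat lysate (HEPES pH 7.5, 20 mM MnCl2, 5 mg/ml) was pre-incubated 15 min with compound at room temperature, then labelled with 5 μM acyl-phosphate ATP probe AX9989. Tryptic probe-labelled active-site peptides were streptavidin-captured and quantified by LC/MS. Percent inhibition reflected the decrease in labelled-peptide intensity versus no compound.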
# AurB or AurC = assay: Probe-based (AX9989) kinase profiling in Jurkat lysate: AurB or AurC
# How it was run: as §1
# JAK1 = target: T3, JAK1 (Homo sapiens, UniProt P23458); assay: Probe-based (AX9989) kinase profiling in Jurkat lysate: JAK1
# T3 construct: screened for activity against several kinases in Jurkat cells; endogenous in cells; host or cells: Jurkat cell lysate
# How it was run: as §1
# AMPKa1 or AMPKa2 = assay: Probe-based (AX9989) kinase profiling in Jurkat lysate: AMPKa1 or AMPKa2
# How it was run: as §1
# TAO2 = target: T4, TAO2 (Homo sapiens, UniProt Q9UL54); assay: Probe-based (AX9989) kinase profiling in Jurkat lysate: TAO2
# T4 construct: screened for activity against several kinases in Jurkat cells; endogenous in cells; host or cells: Jurkat cell lysate
# T4 sequence (Q9UL54 1-1235): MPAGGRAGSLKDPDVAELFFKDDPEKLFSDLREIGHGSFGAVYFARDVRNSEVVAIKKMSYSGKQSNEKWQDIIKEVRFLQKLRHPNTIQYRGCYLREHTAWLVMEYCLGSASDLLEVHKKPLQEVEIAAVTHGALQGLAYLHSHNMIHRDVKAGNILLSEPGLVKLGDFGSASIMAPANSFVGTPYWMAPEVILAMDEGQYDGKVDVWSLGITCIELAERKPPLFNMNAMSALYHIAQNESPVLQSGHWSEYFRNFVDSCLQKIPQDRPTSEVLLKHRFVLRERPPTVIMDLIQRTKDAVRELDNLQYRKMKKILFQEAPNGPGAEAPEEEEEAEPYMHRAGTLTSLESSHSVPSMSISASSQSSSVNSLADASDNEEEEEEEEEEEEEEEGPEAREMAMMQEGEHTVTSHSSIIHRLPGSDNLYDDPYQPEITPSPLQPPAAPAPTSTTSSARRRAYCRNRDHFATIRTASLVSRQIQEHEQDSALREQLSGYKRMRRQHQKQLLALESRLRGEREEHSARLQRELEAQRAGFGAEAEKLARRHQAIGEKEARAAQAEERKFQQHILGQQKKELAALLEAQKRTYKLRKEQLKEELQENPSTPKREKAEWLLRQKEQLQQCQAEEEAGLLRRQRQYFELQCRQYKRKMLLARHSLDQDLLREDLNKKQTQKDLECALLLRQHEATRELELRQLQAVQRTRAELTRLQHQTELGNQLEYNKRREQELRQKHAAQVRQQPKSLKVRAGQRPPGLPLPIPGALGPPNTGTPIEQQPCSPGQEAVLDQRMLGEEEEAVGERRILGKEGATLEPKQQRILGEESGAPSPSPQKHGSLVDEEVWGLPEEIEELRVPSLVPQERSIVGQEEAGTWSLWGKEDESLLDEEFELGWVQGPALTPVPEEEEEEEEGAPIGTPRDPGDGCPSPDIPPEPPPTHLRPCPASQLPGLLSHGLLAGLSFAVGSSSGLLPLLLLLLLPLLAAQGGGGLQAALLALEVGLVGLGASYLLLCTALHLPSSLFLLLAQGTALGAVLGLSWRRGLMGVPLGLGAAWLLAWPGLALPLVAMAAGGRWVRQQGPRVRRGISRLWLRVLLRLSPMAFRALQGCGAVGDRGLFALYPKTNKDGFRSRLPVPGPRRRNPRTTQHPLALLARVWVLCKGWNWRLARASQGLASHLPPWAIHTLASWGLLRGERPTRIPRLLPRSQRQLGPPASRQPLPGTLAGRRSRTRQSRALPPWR
# How it was run: as §1
# ACK = target: T5, ACK (Homo sapiens, UniProt Q07912); assay: Probe-based (AX9989) kinase profiling in Jurkat lysate: ACK
# T5 construct: screened for activity against several kinases in Jurkat cells; endogenous in cells; host or cells: Jurkat cell lysate
# How it was run: as §1
# ABL or ARG = assay: Probe-based (AX9989) kinase profiling in Jurkat lysate: ABL or ARG
# How it was run: as §1
# [1] = target: T6, BRD4 bromodomain domain I [BRD4(1)] (Homo sapiens, UniProt O60885); assay: BRD4 bromodomain domain 1 inhibition assay (TR-FRET); conditions: screening concentration 10 μM
# T6 construct: BRD4 bromodomain domain I [BRD4(1)]; purchased Cayman Chemicals
# Procedure: The inhibitory activity of test compounds on the bromodomain, BRD4 bromodomain domain I [BRD4(1)], were determined via TR-FRET after a slight modification of the manufacturer's protocol (Cayman Chemicals, Ann Arbor, Mich.). Briefly, compounds were diluted to a 20× ([…]) concentration in DMSO. 100 nL of 20× compounds were then dry stamped into triplicate wells of black, low volume 384 well plates (Aurora Biotechnologies, Carlsbad, Calif.) using the Mosquito liquid handler (TPP Labtech, Melbourn, UK). 20× compounds were then diluted to a 4× (40 μM) concentration in Assay Buffer to result in 2% DMSO content. […] JQ1 at 10 μM or 0.5% DMSO final concentrations were used as the positive and negative controls, respectively, to set the assay window. The fluorescence was read in a time-resolved format on the Biotec Synergy 2 plate reader by exciting the signal at 340 nm and reading emissions at 620 and 670, using a 100 μs delay and 200 μs read window. […] Briefly, TR-FRET ratio values were normalized to the average TR-FRET ratio value given by 10 μM JQ1. […]
# [2] = calculated from percent inhibition of AX9989 labeling and the screening concentration
# [3] = screening concentration 1.0 μM, read-out: Kinase inhibition % at indicated screening concentration: ERK5
# [4] = screening concentration 1.0 μM, read-out: Kinase inhibition % at indicated screening concentration: AurA
# [5] = screening concentration 1.0 μM, read-out: Kinase inhibition % at indicated screening concentration: JAK1
# [6] = screening concentration 1.0 μM, read-out: Kinase inhibition % at indicated screening concentration: TAO2
# [7] = screening concentration 1.0 μM, read-out: Kinase inhibition % at indicated screening concentration: ACK
# T5 sequence (Q07912 whole entry): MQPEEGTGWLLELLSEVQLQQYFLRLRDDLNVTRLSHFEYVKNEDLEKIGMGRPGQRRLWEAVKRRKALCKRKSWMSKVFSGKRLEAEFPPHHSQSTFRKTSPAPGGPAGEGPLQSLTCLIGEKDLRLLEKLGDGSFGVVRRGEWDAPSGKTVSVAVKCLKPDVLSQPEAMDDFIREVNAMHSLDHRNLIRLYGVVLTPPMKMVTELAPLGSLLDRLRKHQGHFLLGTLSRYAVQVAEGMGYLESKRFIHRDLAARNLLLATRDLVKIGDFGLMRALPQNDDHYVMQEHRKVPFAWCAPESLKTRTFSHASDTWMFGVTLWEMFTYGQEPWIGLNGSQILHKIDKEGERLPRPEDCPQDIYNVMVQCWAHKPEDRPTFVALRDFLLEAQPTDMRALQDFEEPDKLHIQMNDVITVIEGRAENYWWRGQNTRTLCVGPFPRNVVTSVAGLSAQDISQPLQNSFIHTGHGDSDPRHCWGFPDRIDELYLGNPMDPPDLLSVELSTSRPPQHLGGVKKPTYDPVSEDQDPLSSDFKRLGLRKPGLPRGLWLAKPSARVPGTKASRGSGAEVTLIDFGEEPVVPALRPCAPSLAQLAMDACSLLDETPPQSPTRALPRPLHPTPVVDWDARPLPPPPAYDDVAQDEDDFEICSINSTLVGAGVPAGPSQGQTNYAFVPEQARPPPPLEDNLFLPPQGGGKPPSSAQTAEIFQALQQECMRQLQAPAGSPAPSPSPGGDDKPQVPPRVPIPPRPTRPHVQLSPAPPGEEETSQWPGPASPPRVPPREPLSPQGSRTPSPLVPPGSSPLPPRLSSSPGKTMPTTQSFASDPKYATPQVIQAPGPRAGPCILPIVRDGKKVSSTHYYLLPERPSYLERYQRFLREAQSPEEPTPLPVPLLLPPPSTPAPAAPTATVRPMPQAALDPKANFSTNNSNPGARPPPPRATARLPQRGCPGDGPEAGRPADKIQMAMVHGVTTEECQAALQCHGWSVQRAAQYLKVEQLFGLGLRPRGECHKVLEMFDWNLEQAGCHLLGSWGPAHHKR
# T3 sequence (P23458 whole entry): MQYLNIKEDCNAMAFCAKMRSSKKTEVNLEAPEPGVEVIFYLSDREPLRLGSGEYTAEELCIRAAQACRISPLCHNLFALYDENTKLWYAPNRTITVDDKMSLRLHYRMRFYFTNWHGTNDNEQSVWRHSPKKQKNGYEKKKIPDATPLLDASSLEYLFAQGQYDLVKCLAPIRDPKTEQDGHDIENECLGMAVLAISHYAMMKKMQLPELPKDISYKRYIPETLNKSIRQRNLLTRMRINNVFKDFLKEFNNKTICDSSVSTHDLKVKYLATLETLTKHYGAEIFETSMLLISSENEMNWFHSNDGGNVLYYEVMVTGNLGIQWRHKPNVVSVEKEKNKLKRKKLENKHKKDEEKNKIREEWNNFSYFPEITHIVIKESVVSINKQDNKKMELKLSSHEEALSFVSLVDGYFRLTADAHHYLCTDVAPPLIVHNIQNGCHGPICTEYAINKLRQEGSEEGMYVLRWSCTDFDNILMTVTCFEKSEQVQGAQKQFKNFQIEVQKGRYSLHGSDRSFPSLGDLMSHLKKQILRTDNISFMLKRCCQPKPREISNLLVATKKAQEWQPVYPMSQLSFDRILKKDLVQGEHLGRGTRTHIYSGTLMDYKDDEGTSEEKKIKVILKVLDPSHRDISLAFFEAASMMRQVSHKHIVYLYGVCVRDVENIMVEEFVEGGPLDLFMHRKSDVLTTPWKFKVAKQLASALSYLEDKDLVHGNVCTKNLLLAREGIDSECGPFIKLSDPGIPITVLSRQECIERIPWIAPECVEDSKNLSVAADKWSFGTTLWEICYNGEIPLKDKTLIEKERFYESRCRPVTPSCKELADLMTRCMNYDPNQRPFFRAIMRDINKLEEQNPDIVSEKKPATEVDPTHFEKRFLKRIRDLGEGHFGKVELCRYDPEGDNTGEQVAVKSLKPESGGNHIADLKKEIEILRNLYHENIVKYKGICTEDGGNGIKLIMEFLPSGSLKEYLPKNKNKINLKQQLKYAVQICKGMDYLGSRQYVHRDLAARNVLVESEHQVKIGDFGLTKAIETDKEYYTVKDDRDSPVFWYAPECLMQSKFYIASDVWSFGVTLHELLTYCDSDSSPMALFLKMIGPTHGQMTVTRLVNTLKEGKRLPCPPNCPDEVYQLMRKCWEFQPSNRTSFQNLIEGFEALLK
# T1 sequence (Q13164 whole entry): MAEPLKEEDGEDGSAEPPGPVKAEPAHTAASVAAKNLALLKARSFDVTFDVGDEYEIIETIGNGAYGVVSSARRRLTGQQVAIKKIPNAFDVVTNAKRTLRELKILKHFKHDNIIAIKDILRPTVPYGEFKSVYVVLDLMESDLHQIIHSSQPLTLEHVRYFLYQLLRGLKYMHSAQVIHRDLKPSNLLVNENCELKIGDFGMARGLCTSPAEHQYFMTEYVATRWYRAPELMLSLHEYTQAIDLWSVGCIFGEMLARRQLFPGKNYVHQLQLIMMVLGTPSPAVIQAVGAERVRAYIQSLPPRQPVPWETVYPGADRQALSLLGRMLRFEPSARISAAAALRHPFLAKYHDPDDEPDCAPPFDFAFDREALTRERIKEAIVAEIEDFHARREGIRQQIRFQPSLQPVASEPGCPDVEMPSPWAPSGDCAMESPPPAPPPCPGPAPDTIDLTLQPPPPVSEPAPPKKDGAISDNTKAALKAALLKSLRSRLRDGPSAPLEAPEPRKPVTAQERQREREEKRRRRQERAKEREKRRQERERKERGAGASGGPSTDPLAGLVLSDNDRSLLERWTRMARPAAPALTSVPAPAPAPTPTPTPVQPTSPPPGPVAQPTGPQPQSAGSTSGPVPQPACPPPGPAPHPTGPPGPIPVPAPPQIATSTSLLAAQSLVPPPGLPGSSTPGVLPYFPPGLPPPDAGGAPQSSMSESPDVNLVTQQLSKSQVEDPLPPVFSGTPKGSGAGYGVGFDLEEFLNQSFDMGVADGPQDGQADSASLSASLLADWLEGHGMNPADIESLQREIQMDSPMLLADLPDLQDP
Structure (SMILES),IC50 (ERK5; [2]) [nM],inhibition at 1 µM (ERK5; [3]) [%],inhibition at 1 µM (AurA; [4]) [%],Kinase inhibition % at indicated screening concentration: AurB or AurC (AurB or AurC; screening concentration 1.0 μM),inhibition at 1 µM (JAK1; [5]) [%],Kinase inhibition % at indicated screening concentration: AMPKa1 or AMPKa2 (AMPKa1 or AMPKa2; screening concentration 1.0 μM),inhibition at 1 µM (TAO2; [6]) [%],inhibition at 1 µM (ACK; [7]) [%],Kinase inhibition % at indicated screening concentration: ABL or ARG (ABL or ARG; screening concentration 1.0 μM),inhibition at 10 µM [1] [%],other results
CN1C(=O)c2ccccc2N(C)c2cc(N[C@H]3CC[C@H](NS(C)(=O)=O)CC3)ncc21 [Compound 99],101 to 500,75 to 90,≤ 35,E (E is ≦35%),≤ 35,E (E is ≦35%),≤ 35,≤ 35,E (E is ≦35%),70 to 85,–
CN1C(=O)c2ccccc2N(C)c2cc(NC3CCC(C(=O)O)CC3)ncc21 (centres unmarked) [Compound 23],> 500,35 to 50,≤ 35,E (E is ≦35%),≤ 35,E (E is ≦35%),≤ 35,≤ 35,E (E is ≦35%),< 70,–
CCOc1cc(C(=O)NC(CO)CO)ccc1Nc1cc2c(cn1)N(C)C(=O)c1ccccc1N2C [Compound 48],101 to 500,50 to 75,≤ 35,E (E is ≦35%),≤ 35,E (E is ≦35%),≤ 35,≤ 35,E (E is ≦35%),< 70,–
"CN1C(=O)c2ccccc2N(C)c2cc(N[C@H]3CC[C@H](O)CC3)ncc21 [Compound 33, 3-((1r,4r)-4-hydroxycyclohexylamino)-5,11-dimethyl-5H-benzo[e]pyrido[3,4-b][1,4]diazepin-10(11H)-one]",101 to 500,75 to 90,≤ 35,E (E is ≦35%),≤ 35,E (E is ≦35%),≤ 35,≤ 35,E (E is ≦35%),< 70,–
CN1C(=O)c2ccccc2N(C)c2cc(NC3CCC(N)CC3)ncc21 (centres unmarked) [Compound 79],101 to 500,75 to 90,≤ 35,E (E is ≦35%),≤ 35,E (E is ≦35%),≤ 35,≤ 35,E (E is ≦35%),< 70,–
COc1cc(C(=O)N2CCC(N(C)C)C2)c(F)cc1Nc1cc2c(cn1)N(C)C(=O)c1ccccc1N2C (centres unmarked) [Compound 90],101 to 500,–,–,–,–,–,–,–,–,< 70,"inhibition at 0.1 µM (ERK5; screening concentration 0.1 μM, read-out: Kinase inhibition % at indicated screening concentration: ERK5): ≤ 35%; inhibition at 0.1 µM (AurA; screening concentration 0.1 μM, read-out: Kinase inhibition % at indicated screening concentration: AurA): ≤ 35%; Kinase inhibition % at indicated screening concentration: AurB or AurC (AurB or AurC; screening concentration 0.1 μM): E (E is ≦35%); inhibition at 0.1 µM (JAK1; screening concentration 0.1 μM, read-out: Kinase inhibition % at indicated screening concentration: JAK1): ≤ 35%; Kinase inhibition % at indicated screening concentration: AMPKa1 or AMPKa2 (AMPKa1 or AMPKa2; screening concentration 0.1 μM): E (E is ≦35%); inhibition at 0.1 µM (TAO2; screening concentration 0.1 μM, read-out: Kinase inhibition % at indicated screening concentration: TAO2): ≤ 35%; inhibition at 0.1 µM (ACK; screening concentration 0.1 μM, read-out: Kinase inhibition % at indicated screening concentration: ACK): ≤ 35%; Kinase inhibition % at indicated screening concentration: ABL or ARG (ABL or ARG; screening concentration 0.1 μM): E (E is ≦35%)"
CC(=O)NC1CCC(Nc2cc3c(cn2)N(C)C(=O)c2ccccc2N3C)CC1 (centres unmarked) [Compound 98],> 500,50 to 75,≤ 35,E (E is ≦35%),≤ 35,E (E is ≦35%),≤ 35,≤ 35,E (E is ≦35%),< 70,–
"CCOc1cc(C(=O)N2CCOCC2)ccc1Nc1cc2c(cn1)N(C)C(=O)c1ccccc1O2 [Compound T81, 3-((2-ethoxy-4-(morpholine-4-carbonyl)phenyl)amino)-11-methylbenzo[f]pyrido[4,3-b][1,4]oxazepin-10(11H)-one]",–,–,–,–,–,–,–,–,–,< 70,"IC50 (ERK5; calculated from percent inhibition and screening concentration, AX9989 probe): 101 to 500 nM; inhibition at 1 µM (ERK5; screening concentration 1 μM, read-out: ERK5 Inhibition % at indicated screening concentration): 75 to 90%; inhibition at 1 µM (AurA; screening concentration 1 μM, read-out: AurA Inhibition % at indicated screening concentration): ≤ 35%; AurB or AurC Inhibition % at indicated screening concentration (AurB or AurC; screening concentration 1 μM): E (E is ≦35%); inhibition at 1 µM (JAK1; screening concentration 1 μM, read-out: JAK1 Inhibition % at indicated screening concentration): ≤ 35%; AMPKa1 or AMPKa2 Inhibition % at indicated screening concentration (AMPKa1 or AMPKa2; screening concentration 1 μM): E (E is ≦35%); inhibition at 1 µM (TAO2; screening concentration 1 μM, read-out: TAO2 Inhibition % at indicated screening concentration): ≤ 35%; inhibition at 1 µM (ACK; screening concentration 1 μM, read-out: ACK Inhibition % at indicated screening concentration): ≤ 35%; ABL or ARG Inhibition % at indicated screening concentration (ABL or ARG; screening concentration 1 μM): E (E is ≦35%)"
